Tests used:
Assay type in all cases: cell-based
[1] = tested on: indoleamine 2,3-dioxygenase (IDO) activity in unstimulated PBMC; test: Example 16: IDO activity (kyn/trp) in unstimulated human PBMC; details: 20 mg/ml, 48 h
Procedure: (§1) PBMC were isolated from whole blood obtained from healthy donors, of whom informed consent was obtained that their donated blood unit was used for scientific purposes if not otherwise used. Separation of blood cells was performed using density centrifugation (Lymphoprep, Nycomed Pharma AS, Oslo, Norway). After isolation, PBMC were washed three times in phosphate buffered saline containing 0.2% EDTA [0.5 mmol/L]. Cells were maintained in RPMI 1640 supplemented with 10% heat-inactivated fetal calf serum (Biochrom, Berlin, Germany), 1% of 200 mmol/L glutamine (Serve, Heidelberg, Germany) and 0.1% of gentamicin (50 mg/ml, Bio-Whittaker, Walkersville, Md.) in a humidified atmosphere containing 5% CO2 for 48 h. […]
(§2) After incubation of cells for 48 h, supernatants were harvested by centrifugation and tryptophan and kynurenine concentrations were measured by high performance liquid chromatography (HPLC) using 3-nitro-L-tyrosine as internal standard (Widner and others 1997). To estimate IDO activity, the kynurenine to tryptophan ratio (kyn/trp) was calculated and expressed as μmol kynurenine/mmol tryptophan (Widner et al., 1997). Neopterin concentrations were determined by ELISA (BRAHMS, Hennigsdorf/Berlin, Germany) according to the manufacturer's instructions with a detection limit of 2 nmol/L. […]

[2] = tested on: neopterin formation in unstimulated PBMC; test: Example 16: neopterin formation in unstimulated human PBMC; details: 48 h
Procedure: as §1, §2

[3] = tested on: indoleamine 2,3-dioxygenase (IDO) activity in PHA-stimulated PBMC; test: Example 16: IDO activity (kyn/trp) in PHA-stimulated human PBMC; details: PHA 10 μg/ml, 48 h
Procedure: (§3) PBMC were isolated from whole blood obtained from healthy donors, of whom informed consent was obtained that their donated blood unit was used for scientific purposes if not otherwise used. Separation of blood cells was performed using density centrifugation (Lymphoprep, Nycomed Pharma AS, Oslo, Norway). After isolation, PBMC were washed three times in phosphate buffered saline containing […] [0.5 mmol/L]. Cells were maintained in RPMI 1640 supplemented with 10% heat-inactivated fetal calf serum (Biochrom, Berlin, Germany), 1% of 200 mmol/L glutamine (Serve, Heidelberg, Germany) and 0.1% of gentamicin (50 mg/ml, Bio-Whittaker, Walkersville, Md.) in a humidified atmosphere containing 5% CO2 for 48 h. This procedure was observed earlier to reveal best reproducible results when applied for testing of anti-inflammatory effects of compounds or drugs (Widner et al., 1997). Average tryptophan content in the supplemented RPMI 1640 medium was 31.5 μmol/L. For each of the three experiments run in duplicates, PBMC were freshly prepared. Isolated PBMC were plated at a density of 1.5×10^6 cells/ml in supplemented RPMI 1640, preincubated for 30 minutes with or without BC preparations and stimulated or not with 10 μg/ml PHA for 48 h.
(§4) After incubation of cells for 48 h, supernatants were harvested by centrifugation and tryptophan and kynurenine concentrations were measured by high performance liquid chromatography (HPLC) using 3-nitro-L-tyrosine as internal standard (Widner and others 1997). To estimate IDO activity, the kynurenine to tryptophan ratio (kyn/trp) was calculated and expressed as μmol kynurenine/mmol tryptophan (Widner et al., 1997). Neopterin concentrations were determined by ELISA (BRAHMS, Hennigsdorf/Berlin, Germany) according to the manufacturer's instructions with a detection limit of 2 nmol/L.
(§5) For statistical analysis, the Statistical Package for the Social Sciences (version 14 SPSS, Chicago, Ill., USA) was used. […] P-values below 0.05 were considered to indicate significant differences.

[4] = tested on: neopterin formation in PHA-stimulated PBMC; test: Example 16: neopterin formation in PHA-stimulated human PBMC; details: PHA 10 μg/ml, 48 h
Procedure: as §3, §4, §5

Substance	IDO activity (kyn/trp) as % of unstimulated control [1] [%]	neopterin formation as % of unstimulated control ([2]; 0.2 mg/ml) [%]	neopterin formation as % of unstimulated control ([2]; 2 mg/ml) [%]	IDO activity (kyn/trp) as % of PHA control ([3]; 0.2 mg/ml) [%]	neopterin formation as % of PHA control ([4]; 2 mg/ml) [%]	neopterin formation as % of PHA control ([4]; 20 mg/ml) [%]	Kyn/trp ([3]; PBMC) [μmol/mmol]	increase of IDO activity versus unstimulated PBMC ([3]; PBMC)	kynurenine concentration in the supernatant ([3]; PBMC) [µmol/L]	tryptophan content in the supernatant ([3]; PBMC) [µmol/L]	increase of neopterin concentration versus unstimulated PBMC ([4]; PBMC)	neopterin concentration in the supernatant ([4]; PBMC) [nmol/L]
lactoferrin	54.7±5.0	125±2.8	132±4.1	34.0±9.7	61.3±11.7	31.1±3.9	–	–	–	–	–	–
phytohemagglutinin [phytohemagglutinin (PHA)]	–	–	–	–	–	–	1312±459	approximately 47 fold	9.8 ± 1.3	8.2 ± 2.0	about 3.6 fold	13.2 ± 3.6
